Tested on: alfalfa (Medicago sativa)
Assay: Greenhouse herbicidal efficacy of 2,4-D amine tank-mixed with adjuvants, post-emergence spray
Format: in vivo
Details: 2,4-D DMA 0.125 lb/A, adjuvant 0.25% wt (0 for None), scale 0% no damage to 100% complete damage
Method: The surfactant blends described in Table 1 were applied by the tank mix method together with 2,4-D amine salt (465 g/l). The application rate per ha was 0.1250 lb 2,4-D amine salt ai/A and 0.25% of surfactant blends according to the invention or 0.25% comparative adjuvant Activator 90 (alkylphenol ethoxylate, alcohol ethoxylate and tall oil fatty acid, (Loveland). The herbicidal effect was assessed in a greenhouse environment after 1, 2, 3, and 4 weeks. The test plant used was alfalfa (Medicago sativa).
The plants were sown directly to the pot. When the active ingredient was applied, the plants were 20-30 cm in height. The test containers used were plastic pots containing potting mixture. The solutions were applied by the tank mix method by spray application post-emergence in an automated spray cabinet with a water application rate of 200 liters per hectare. Evaluation was carried out using a scale of from 0% to 100%. 0% means no damage, 100% means complete damage. The results of the assessment are compiled in tables 2 and which follow.

In the case of O=C(O)COc1ccc(Cl)cc1Cl [2,4-D DMA, 2-(2,4-dichlorophenoxy) acetic acid], the “Alfalfa (1WAT) % control” value (1 week after treatment) is reported as 10.0%, the “Alfalfa (2WAT) % control” value (2 weeks after treatment) is reported as 20.0% and the “Alfalfa (3WAT) % control” value (3 weeks after treatment) is reported as 20.0%. For the same molecule, the “Alfalfa (4WAT) % control” value (4 weeks after treatment) was 37.5%.
